The subject of experiment [1] is Argentine ants. As to the kind of experiment: Experiment #3: laboratory colony mortality after spray applied away from the ant nest. The class given is in vivo, Linepithema humile. Particulars: 0.01% fipronil and/or approx. 12 ng per cm^2 (Z)-9-hexadecenal; 3 ml on 491 cm^2 sand; colony about 731 ants; n=5-6. As to the method: Experiment #3 was conducted to observe would co-application of synthetic trail pheromone improve the efficacy of fipronil insecticide spray applied away from the ant nest? A laboratory study was conducted to determine if the efficacy of an insecticide spray (fipronil) can be improved by adding with a synthetic attractant trail pheromone. Argentine ants were collected from a citrus grove (biological control grove) on the University of California, Riverside, campus. Ant nests were excavated from the ground and transported to a laboratory chamber where they were extracted from the soil. Laboratory stock colonies were maintained in plastic boxes (26.5 by 30 by 10 cm) with the inner sides coated with Teflon™ Fluoropolymer resin, type 30, DuPont Polymers) to prevent ants from escaping. Each colony was provided with two or three artificial nests constructed from plaster-filled petri dishes (9 cm in diameter by 1.5 cm in depth) formed with a 5-cm-diameter by 1-cm-deep cylindrical area in the center of the dish to serve as a nesting space. […]
Three different spray preparations were tested: (a) pheromone+fipronil, (b) fipronil only, and (c) pheromone only. […] The dead ants were removed from the colony box and counted daily. […]

Experiment [2] has as its system Argentine ant populations. Particulars: relatively large quantities, stand-alone treatment, field; cited from earlier work.
The test system of experiment [3] is Argentine ants. As to the kind of experiment: Experiment #2: field attraction of ants from nest entrance and nearby trails to a pheromone-sprayed sand patch. The class given is in vivo, Linepithema humile. As to the method: Experiment #2 was conducted to observe would synthetic trail pheromone spray deposit attract the ants from a nest entrance and nearby trails? The study was conducted in the biological control grove at the University of California, Riverside, in Apr. 23, 2012. Nest entrances of Argentine ant colonies were located, which had active trails associated with them (one nest entrance per nest). By using the nest entrance and trails associated with the nest entrance, the pheromone assisted technique” was tested to see if it would attract ants from the nest entrance and nearby trails. For the pheromone treatment, two patches were made of sand on both sides of the nest entrance by evenly spreading 52.5 g of sand in a square (20 by 20 cm). The distance between the two patches was about 5 cm. The method and rate of application were identical with those of experiment #1.
Both sand patches were photographed at 1, 2, and 3 min after application of sprays. The study was replicated ten times by using a different nest entrance for each replicate. The numbers of ants on the 20 by 20-cm sand patches were counted at 1, 2, and 3 minute post-treatment using the photographs. The average values were compared between treatment and control with a paired T-test (one-sided, Analytical Software 2008). […]

Experiment [4] concerns Argentine ants. As to the kind of experiment: Experiment #1: field attraction of ants from an existing trail to a pheromone-sprayed sand patch. The class given is in vivo, Linepithema humile. The protocol:
Experiment #1 was conducted to observe would synthetic trail pheromone spray deposit attract the ants from an existing trail? The study was conducted in the biological control grove at the University of California, Riverside, in April 2012. The site supports a large population of Argentine ants, primarily because of the absence of chemical insecticide use and the existence of honeydew-producing insects in the citrus trees. Five different trails of Argentine ants were located, which were relatively straight and at least 30-cm long, and originating from different nests. By using these trails as “existing trails,” tests were performed to see if the “pheromone assisted technique” would attract ants from the existing trails. For the pheromone treatment, two patches of sand were made, one on each side of the existing trail by evenly spreading 52.5 grams (g) of sand in a square (20 by 20 cm). The distance between two patches was about 5 cm. One patch served as a treatment, and the other one served as a control. For the treatment, 1 mg of the synthetic pheromone compound [(Z)-9-hexadecenal] dissolved in 1 ml of ethyl alcohol was mixed with 500 ml of deionized water. […]
Each sand patch was treated with four sprays (each spray targeting 10 by 10 cm areas on one corner). […] The numbers of ants on the 20 by 20-cm sand patches were counted at 2 and 4 min post-treatment using the photographs. […]

The values below come from patent US12171226B2, “Development of pheromone assisted techniques to improve efficacy of insecticide sprays targeting urban pest ant species” (The Regents of the University of California, priority 2012, dated 2024).

For `N#Cc1nn(-c2c(Cl)cc(C(F)(F)F)cc2Cl)c(N)c1[S+]([O-])C(F)(F)F` (stereo not shown) [fipronil only, fipronil], in the experiment on Argentine ants [1], the “cumulative number of dead ants at day 7 post-treatment (mean±SEM)” value was 291±27.1.

In the case of `CCCCCC/C=C\CCCCCCCC=O` [(Z)-9-hexadecenal], the “cumulative number of dead ants at day 7 post-treatment (mean±SEM)” value in the experiment with Argentine ants [1] is on record as 65.8±11.0. Moreover, the “impact on Argentine ant populations” value in experiment [2] is on record as “negligible impact”. The “number of ants on treated sand patch relative to control patch” value is “more than five times higher” in the experiment with Argentine ants [3] (approx. 12 ng per cm^2, paired T-test P<0.001) and “more than two times higher” in the experiment with Argentine ants [4] (approx. 12 ng per cm^2, paired T-test P=0.033). Besides, the “average number of ants on the 20 by 20-cm sand patch (mean±SEM)” value is listed as 18.1±3.0 in the experiment on Argentine ants [3] (approx. 12 ng per cm^2 on sand, counts at 1, 2 and 3 min post-treatment, 10 replicates, nest entrance and nearby trails); 10.4±4.0 in the experiment on Argentine ants [4] (approx. 12 ng per cm^2 on sand, counts at 2 and 4 min post-treatment averaged, 5 replicates, existing trail).
